From patent US20250321223A1, “ENGINEERING CHEMICALLY INDUCIBLE SPLIT PROTEIN ACTUATORS (CISPA)” (KEMIJSKI INSTITUT, priority 2021, published 2025)

How the values were obtained:
[1] = molecular target: split ligand binding domain of estrogen receptor beta (ERβ) (Homo sapiens, UniProt Q92731); settings: HEK293T cells, increasing ligand concentration, compared to cells not stimulated; FIG. 2C
From the text: (§1) The fusion constructs were simultaneously expressed in the HEK293T cell line. […] Following this dimerization, the split reporter fragments (nLuc and cLuc) are brought into the proximity, leading to their reconstitution and measurable output signal (emitted light). The plasmids encoding for the CISPA sensors based on split LBDs were transiently transfected into the HEK293T cell line. A constitutively expressed Renilla luciferase (phRL-TK http://www.promega.com/vectors/prltk.txf) was used as control of transfection efficiency.
(§2) Methods and techniques for cell line cultivation are well-known to experts in the field and are explained here only indicatively, with the intention of clarifying the example. Cell cultures of HEK293T cells were grown at 37° C. and 5% CO2. For cultivation, DMEM medium with 10% FBS, containing all the necessary nutrients and growth factors was used. When the cell population reached a sufficient density, the cells were transferred to a new flask and/or diluted. For use in experiments, the number of cells was determined by the Countess automated cell counter (Invitrogen). A 96-well microtiter plate, suitable for growing cell cultures, was inoculated with 2*10^4 cells per well 24 hours prior to transfection.

[2] = tested on: split dihydrofolate reductase (DHFR); experiment: CISPA sensor, split DHFR fused to split firefly luciferase, in HEK293T cells; format: cell-based, human; settings: increasing ligand concentration, compared to cells not stimulated, FIG. 3B
Description: as §2
A constitutively expressed Renilla luciferase (phRL-TK http://www.promega.com/vectors/prltk.txf) was used as control of transfection efficiency.

[3] = tested on: split ligand binding domain of glucocorticoid receptor (GR2); experiment: CISPA sensor, split LBD of GR2 fused to split firefly luciferase, in HEK293T cells; format: cell-based, human; settings: increasing ligand concentration, compared to cells not stimulated, FIG. 2B
From the text: as §1, §2

Chain of split ligand binding domain of estrogen receptor beta (ERβ) (Q92731 with tags, fused parts or gaps): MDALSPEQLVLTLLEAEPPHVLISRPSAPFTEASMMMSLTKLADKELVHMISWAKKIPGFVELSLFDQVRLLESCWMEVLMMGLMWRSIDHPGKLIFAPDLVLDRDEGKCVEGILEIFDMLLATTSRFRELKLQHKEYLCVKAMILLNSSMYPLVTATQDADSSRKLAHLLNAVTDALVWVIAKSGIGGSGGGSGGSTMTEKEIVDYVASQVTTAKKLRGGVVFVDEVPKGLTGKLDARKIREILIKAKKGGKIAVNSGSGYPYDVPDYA
Chain of split ligand binding domain of estrogen receptor beta (ERβ) (Q92731 with tags, fused parts or gaps): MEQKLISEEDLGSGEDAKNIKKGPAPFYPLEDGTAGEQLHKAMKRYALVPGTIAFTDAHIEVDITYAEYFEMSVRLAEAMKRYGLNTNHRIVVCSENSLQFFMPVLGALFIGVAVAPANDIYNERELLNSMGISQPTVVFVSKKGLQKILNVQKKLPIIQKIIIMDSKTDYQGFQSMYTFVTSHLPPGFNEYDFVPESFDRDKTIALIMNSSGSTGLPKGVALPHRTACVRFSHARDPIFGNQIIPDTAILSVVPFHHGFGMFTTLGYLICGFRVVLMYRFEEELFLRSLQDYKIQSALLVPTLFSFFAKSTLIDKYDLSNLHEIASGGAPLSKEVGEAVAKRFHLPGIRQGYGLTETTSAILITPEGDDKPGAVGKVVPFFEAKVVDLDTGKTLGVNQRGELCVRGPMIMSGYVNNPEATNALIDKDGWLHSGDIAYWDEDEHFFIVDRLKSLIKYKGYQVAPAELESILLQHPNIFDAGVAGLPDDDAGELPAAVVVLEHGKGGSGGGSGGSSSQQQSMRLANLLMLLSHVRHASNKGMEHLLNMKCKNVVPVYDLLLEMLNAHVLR

Molecule | firefly luciferase activity (dimerization of split DHFR CISPA sensor) [2] | other results
4-hydroxytamoxifen |  | firefly luciferase activity (dimerization of split ERβ CISPA sensor) [1]: concentration-dependent manner
C#CCC(Cc1cnc2nc(N)nc(N)c2n1)c1ccc(C(=O)N[C@@H](CCC(=O)O)C(=O)O)cc1 (stereo partly shown) [pralatrexate] | an increase in firefly luciferase activity is observed | 
CN(Cc1cnc2nc(N)nc(N)c2n1)c1ccc(C(=O)N[C@@H](CCC(=O)O)C(=O)O)cc1 [methotrexate] | an increase in firefly luciferase activity is observed | 
C[C@]12CCC(=O)C=C1CC[C@@H]1[C@@H]2[C@@H](O)C[C@@]2(C)[C@H]1CC[C@]2(O)C(=O)CO [cortisol] |  | firefly luciferase activity (dimerization of split GR2 CISPA sensor) [3]: an increase in the firefly luciferase activity is observed
